Laboratory results published in ChEMBL document CHEMBL1201862, “PubChem BioAssay data set” (2004).
Active and inactive are the calls of the source.

Columns and labels:
INS1 = assay: beta cell apoptosis inhibitors, cytokine rescue, dose response, luminescence, retest (AID 449756); type: functional, cell-based; details: Rattus norvegicus;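 also: cell death triggered by IL-1 beta plus TNF-alpha plus IFN-gamma mixture; protective hits raise ATP signal compared with cytokine alone wells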
Vero [1] = assay: host cell cytotoxicity of antiviral hits, dose response, cytotoxicity control for West Nile virus antiviral project, secondary assay (AID 1650); type: functional; details: Chlorocebus sabaeus
HEK293 [2] = assay: cells; type: functional, cell-based; details: Homo sapiens
[3] = NIH-3T3 fibroblast cytotoxicity, dose response, cytotoxicity control, cell-based, fluorescence, Alamar Blue, secondary assay (AID 2327); type: functional;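 also: NIH-3T3 mouse fibroblasts cultured with fluconazole at 8 µg/mL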
HEK293 [4] = assay: cells; type: functional, cell-based; details: Homo sapiens; remark: listed apart in the source
Beta-galactosidase = Beta-galactosidase (Escherichia coli, UniProt Q8VNN2); assay: PubChem AID 485352; type: functional
Chain of Beta-galactosidase (Q8VNN2 whole entry): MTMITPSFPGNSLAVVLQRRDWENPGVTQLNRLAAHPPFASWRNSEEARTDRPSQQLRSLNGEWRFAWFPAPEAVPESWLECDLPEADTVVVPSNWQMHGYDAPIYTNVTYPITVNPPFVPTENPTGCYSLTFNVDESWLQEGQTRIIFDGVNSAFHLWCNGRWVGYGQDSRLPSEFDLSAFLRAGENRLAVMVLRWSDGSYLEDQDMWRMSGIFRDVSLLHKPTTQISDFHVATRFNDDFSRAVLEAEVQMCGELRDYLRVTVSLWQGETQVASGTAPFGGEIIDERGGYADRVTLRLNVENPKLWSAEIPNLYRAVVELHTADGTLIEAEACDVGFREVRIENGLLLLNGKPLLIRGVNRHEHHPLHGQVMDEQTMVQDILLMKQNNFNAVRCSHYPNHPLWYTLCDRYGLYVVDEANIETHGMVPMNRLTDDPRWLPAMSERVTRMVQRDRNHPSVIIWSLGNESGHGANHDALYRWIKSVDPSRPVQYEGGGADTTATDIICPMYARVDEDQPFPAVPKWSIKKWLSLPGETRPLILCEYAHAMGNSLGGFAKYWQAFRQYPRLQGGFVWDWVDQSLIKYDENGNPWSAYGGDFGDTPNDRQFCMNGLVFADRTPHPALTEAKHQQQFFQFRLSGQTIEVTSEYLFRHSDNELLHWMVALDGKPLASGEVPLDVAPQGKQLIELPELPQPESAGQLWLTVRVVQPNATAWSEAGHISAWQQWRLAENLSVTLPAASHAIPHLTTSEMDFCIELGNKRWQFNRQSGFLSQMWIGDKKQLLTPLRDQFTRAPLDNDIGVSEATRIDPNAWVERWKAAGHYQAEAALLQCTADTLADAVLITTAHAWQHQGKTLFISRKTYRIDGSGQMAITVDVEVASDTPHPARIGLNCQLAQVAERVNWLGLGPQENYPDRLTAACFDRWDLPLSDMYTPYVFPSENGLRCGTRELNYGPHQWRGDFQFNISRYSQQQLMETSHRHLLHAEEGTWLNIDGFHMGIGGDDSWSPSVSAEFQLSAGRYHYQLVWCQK

[5] = C. albicans growth with fluconazole, confirmation, fluorescence, retest (AID 2467); type: functional, cell-based
HEK293 [6] = assay: NOD2 signaling inhibitors in MDP-stimulated cells, cell-based, uHTS, luminescence (AID 2001); type: functional; details: Homo sapiens
[7] = molecular target: Nucleotide-binding oligomerization domain-containing protein 2 (Homo sapiens, UniProt Q9HC29); assay: NOD2 signaling inhibitors, cell-based, luminescence, uHTS, HEK293 (AID 1566); type: functional
Chain of Nucleotide-binding oligomerization domain-containing protein 2 (Q9HC29 whole entry, the tested form may be a part): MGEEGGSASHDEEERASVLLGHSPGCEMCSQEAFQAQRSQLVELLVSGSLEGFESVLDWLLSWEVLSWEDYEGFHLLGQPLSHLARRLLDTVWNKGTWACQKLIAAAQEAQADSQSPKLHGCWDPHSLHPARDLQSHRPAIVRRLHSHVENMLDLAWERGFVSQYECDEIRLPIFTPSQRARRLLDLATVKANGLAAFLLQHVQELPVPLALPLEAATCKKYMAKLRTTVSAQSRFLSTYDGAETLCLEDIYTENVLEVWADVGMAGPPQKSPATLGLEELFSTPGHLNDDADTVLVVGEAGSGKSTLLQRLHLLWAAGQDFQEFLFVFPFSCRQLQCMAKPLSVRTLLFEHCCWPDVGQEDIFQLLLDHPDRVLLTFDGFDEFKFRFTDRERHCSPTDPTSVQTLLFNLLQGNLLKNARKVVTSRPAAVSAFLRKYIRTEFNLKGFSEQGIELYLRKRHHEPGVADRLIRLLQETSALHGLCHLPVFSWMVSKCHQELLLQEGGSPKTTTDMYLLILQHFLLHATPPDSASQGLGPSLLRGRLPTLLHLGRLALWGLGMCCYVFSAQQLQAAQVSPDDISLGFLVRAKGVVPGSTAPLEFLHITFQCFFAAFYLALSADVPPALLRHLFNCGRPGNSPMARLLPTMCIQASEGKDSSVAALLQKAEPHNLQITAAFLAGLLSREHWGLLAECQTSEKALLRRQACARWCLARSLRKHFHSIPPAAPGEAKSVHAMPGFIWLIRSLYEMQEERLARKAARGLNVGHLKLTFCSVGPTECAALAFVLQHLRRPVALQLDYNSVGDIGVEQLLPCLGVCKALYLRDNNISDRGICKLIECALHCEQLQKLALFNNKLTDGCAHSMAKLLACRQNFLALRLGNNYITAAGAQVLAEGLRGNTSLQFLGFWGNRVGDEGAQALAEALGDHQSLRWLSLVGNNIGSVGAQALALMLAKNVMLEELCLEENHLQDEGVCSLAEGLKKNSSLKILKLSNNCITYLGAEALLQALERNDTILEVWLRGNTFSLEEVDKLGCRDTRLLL

HEK293 [8] = assay: NOD1 signaling inhibitors, primary screen, cell-based, luminescence, uHTS (AID 1578); type: functional; details: Homo sapiens
[9] = molecular target: T1, Type-1 angiotensin II receptor (Homo sapiens, UniProt P30556); assay: AT1 receptor antagonists, dose response, selectivity assay for APJ receptor antagonist project, cell-based, uHTS hits (AID 463214); type: functional;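 also: antagonist potency against angiotensin II stimulated AT1 response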
T1 sequence (P30556 whole entry): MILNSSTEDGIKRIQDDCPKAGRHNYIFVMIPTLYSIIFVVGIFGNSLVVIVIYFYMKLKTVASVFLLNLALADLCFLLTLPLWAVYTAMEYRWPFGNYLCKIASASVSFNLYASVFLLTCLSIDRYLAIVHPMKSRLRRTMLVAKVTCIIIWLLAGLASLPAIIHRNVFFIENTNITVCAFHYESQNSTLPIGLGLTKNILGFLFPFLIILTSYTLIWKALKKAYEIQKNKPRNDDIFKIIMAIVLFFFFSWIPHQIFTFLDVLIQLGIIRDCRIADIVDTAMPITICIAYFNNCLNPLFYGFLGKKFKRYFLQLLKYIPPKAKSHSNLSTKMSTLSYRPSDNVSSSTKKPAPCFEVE

HEK293 [10] = assay: cells; type: functional, cell-based; details: Homo sapiens; remark: listed apart in the source
[11] = cytotoxicity in HEK-293T cells, dose response, cytotoxicity control for TCR NF-kB inhibitor project, luminescence, T-cell screen hits (AID 489026); type: functional, cell-based;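 also: cells exposed to compound about 14 hours before the viability readout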
Cytochrome P450 1A2 = molecular target: T2, Cytochrome P450 1A2 (Homo sapiens, UniProt P05177);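 also: PubChem cytochrome P450 panel assay, CYP1A2 panel member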
T2 sequence (P05177 whole entry): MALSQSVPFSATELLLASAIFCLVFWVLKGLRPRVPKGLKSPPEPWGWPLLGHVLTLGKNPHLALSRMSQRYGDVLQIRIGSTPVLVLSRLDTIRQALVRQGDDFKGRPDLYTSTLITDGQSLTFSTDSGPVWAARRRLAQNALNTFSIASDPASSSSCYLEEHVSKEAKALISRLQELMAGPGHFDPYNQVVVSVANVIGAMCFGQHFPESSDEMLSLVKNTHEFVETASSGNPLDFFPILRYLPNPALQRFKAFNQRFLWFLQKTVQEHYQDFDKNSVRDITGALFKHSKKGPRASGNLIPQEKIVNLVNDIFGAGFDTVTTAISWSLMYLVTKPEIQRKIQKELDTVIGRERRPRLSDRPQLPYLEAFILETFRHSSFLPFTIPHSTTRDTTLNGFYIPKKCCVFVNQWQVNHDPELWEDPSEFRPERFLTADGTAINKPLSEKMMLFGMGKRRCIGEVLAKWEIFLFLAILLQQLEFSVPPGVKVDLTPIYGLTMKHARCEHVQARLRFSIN

Cytochrome P450 2C19 = Cytochrome P450 2C19 (Homo sapiens, UniProt P33261); assay: Cytochrome panel assay with activity outcomes. Panel member name: p450-cyp2c19 Compounds with AC50 equal or less than 10 uM are considered active; type: functional; details: read-out: AC50
Chain of Cytochrome P450 2C19 (P33261 whole entry): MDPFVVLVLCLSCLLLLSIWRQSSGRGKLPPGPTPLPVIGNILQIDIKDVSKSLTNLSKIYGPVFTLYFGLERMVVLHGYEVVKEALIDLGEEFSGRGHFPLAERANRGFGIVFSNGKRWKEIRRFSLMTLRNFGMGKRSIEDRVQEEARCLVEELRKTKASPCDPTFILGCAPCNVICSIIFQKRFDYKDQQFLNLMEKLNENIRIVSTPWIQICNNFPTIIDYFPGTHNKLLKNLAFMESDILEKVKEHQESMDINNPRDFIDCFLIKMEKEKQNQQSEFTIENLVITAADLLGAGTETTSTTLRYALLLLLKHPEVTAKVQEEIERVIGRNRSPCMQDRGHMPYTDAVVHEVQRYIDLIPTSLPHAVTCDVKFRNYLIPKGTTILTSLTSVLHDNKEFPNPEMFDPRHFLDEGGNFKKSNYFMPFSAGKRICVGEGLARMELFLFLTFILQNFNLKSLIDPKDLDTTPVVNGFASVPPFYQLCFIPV

Cytochrome P450 2D6 = Cytochrome P450 2D6 (Homo sapiens, UniProt P10635);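 also: CYP2D6 member of a cytochrome P450 panel assay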
Chain of Cytochrome P450 2D6 (P10635 whole entry): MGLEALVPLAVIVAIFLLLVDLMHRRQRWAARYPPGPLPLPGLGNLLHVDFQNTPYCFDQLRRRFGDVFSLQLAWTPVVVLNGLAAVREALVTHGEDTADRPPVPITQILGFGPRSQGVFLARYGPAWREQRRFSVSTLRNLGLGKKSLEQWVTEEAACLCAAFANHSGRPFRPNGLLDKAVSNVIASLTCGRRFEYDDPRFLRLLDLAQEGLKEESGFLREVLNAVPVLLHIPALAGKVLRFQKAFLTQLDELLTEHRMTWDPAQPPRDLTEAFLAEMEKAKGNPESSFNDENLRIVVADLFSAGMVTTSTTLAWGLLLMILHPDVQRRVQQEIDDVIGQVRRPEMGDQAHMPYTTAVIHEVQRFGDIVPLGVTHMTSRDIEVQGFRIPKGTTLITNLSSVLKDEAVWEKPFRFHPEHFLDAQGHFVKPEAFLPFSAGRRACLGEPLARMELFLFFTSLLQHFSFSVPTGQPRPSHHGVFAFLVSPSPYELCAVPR

[12] = molecular target: T3, Short transient receptor potential channel 4 (Mus musculus, UniProt Q9QUQ5); assay: mouse TRPC4 channel activators, dose response, cell-based, HEK293 TRPC4/mu-opioid, Fluo-4 calcium (AID 434937); type: functional
T3 sequence (Q9QUQ5 whole entry): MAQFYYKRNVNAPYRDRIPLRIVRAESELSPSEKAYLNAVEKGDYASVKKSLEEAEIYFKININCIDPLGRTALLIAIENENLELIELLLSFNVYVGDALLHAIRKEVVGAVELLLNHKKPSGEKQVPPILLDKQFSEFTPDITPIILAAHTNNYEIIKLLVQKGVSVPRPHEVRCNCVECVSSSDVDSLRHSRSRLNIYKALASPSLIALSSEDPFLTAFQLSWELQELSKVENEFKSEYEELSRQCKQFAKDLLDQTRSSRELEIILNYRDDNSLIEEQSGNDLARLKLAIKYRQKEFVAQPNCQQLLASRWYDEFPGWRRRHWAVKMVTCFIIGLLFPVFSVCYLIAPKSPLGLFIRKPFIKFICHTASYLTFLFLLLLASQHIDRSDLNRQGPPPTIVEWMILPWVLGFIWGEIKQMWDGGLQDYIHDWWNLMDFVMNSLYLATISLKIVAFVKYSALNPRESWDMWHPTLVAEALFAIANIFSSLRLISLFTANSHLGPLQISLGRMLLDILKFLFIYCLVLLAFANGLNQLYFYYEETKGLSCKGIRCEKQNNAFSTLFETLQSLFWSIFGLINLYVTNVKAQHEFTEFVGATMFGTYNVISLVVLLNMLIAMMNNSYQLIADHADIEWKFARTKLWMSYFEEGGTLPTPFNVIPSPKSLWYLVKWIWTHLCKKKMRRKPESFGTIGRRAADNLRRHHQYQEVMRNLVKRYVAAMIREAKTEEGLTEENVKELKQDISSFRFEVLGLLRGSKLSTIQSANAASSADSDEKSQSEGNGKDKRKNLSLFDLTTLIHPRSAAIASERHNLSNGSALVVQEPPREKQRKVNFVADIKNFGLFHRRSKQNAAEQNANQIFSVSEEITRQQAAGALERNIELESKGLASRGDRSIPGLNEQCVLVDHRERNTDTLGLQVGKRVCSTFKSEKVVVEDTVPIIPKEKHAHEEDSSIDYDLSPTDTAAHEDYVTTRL

Protein RecA = molecular target: T4, Protein RecA (Mycobacterium tuberculosis, UniProt P9WHJ3); assay: Fluorescence Cell-Free Homogeneous Dose Retest to Identify Inhibitors of RecA-Intein Splicing Activity. [Related pubchem assays (depositor defined):AID2097, AID2223, AID489010, AID492950]; type: functional
T4 sequence (P9WHJ3 whole entry): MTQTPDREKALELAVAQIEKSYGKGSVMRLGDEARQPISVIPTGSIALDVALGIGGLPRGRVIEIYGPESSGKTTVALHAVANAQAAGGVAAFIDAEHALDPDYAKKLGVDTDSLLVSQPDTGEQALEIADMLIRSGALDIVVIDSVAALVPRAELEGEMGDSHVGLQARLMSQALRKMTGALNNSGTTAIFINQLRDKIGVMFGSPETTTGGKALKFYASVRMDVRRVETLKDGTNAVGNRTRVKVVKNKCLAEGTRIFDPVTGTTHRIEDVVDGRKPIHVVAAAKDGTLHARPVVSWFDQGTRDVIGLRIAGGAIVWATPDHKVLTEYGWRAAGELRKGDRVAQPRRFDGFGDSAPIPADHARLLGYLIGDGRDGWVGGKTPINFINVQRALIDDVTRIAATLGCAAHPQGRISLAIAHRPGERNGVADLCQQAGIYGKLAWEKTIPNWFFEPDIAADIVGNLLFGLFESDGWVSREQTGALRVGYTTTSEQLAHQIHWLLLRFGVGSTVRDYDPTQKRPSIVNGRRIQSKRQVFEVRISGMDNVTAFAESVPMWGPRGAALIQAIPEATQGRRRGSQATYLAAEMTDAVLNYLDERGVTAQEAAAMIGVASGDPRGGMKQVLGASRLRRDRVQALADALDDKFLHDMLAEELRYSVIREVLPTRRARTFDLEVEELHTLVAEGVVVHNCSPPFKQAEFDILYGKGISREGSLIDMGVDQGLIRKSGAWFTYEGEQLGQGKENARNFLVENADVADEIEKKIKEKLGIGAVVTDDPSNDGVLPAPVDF

Vero [13] = assay: cells; type: functional, cell-based; details: Chlorocebus sabaeus
Vero [14] = assay: cells; type: functional; details: Chlorocebus sabaeus
[15] = molecular target: T5, Replicative DNA helicase DnaB (Mycobacterium tuberculosis, UniProt P9WMR3); assay: DnaB intein splicing inhibitors, dose response, biochemical, cell-free fluorescence (AID 449749); type: functional
T5 sequence (P9WMR3 whole entry): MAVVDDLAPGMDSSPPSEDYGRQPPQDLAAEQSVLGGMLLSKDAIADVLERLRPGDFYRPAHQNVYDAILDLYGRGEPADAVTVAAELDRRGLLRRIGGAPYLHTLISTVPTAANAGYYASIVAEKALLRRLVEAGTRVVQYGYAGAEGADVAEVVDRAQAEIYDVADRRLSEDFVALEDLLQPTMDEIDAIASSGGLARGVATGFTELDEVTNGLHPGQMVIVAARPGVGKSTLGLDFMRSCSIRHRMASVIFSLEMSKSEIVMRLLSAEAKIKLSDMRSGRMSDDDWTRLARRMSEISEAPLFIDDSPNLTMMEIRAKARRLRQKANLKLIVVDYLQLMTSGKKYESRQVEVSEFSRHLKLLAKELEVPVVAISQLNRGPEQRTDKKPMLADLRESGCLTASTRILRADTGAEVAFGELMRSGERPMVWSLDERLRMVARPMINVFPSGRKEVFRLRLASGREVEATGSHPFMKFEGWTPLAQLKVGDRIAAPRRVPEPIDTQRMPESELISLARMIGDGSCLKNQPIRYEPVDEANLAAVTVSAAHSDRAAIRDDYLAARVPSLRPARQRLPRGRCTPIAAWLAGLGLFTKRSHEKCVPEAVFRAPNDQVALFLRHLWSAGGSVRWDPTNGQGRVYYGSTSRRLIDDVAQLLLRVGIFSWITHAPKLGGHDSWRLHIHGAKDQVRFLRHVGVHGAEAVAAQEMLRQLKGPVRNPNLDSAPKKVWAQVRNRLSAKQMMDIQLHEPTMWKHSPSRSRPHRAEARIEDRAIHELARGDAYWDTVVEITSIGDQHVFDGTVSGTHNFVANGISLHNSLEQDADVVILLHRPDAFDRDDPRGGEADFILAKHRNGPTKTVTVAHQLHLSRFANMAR

With Cc1ccc(C)c(N=Nc2ccc(O)c3ncccc23)c1 the AC50 (INS1) was 1.29 µM (active), the CC50 (Vero [1]) was 6.64 µM (active) and the IC50 (HEK293 [2]) was 1.89 µM (active). The EC50 [3] was 17 µM (active), the IC50 (HEK293 [4]) was > 20 µM (inactive) and the EC50 (Beta-galactosidase) was > 40 µM (inactive). For the same compound, the EC50 [5] was 1.57 µM (active), the IC50 (HEK293 [6]) was 3 µM (active) and the EC50 [7] was > 20 µM (inactive). For the same compound, the EC50 (HEK293 [8]) was 4.12 µM (active), the IC50 [9] was 9.84 µM (active) and the IC50 (HEK293 [10]) was > 20 µM (inactive). For the same compound, the IC50 [11] was > 80 µM (inactive).

With COc1ccc(C(=O)NC(=S)NNC(=O)CCc2ccccc2)cc1 the AC50 (Cytochrome P450 1A2) was 15.8 µM (inconclusive), the AC50 (Cytochrome P450 2C19) was 14.1 µM (inconclusive) and the AC50 (Cytochrome P450 2D6) was 15.8 µM (inconclusive). The EC50 [12] was 5.96 µM (active), the EC50 [3] was > 150 µM (inconclusive) and the EC50 (Protein RecA) was > 380 µM (inactive). For the same compound, the IC50 (Vero [13]) was 24.6 µM (active), the EC50 [5] was 2.16 µM (active) and the CC50 (Vero [14]) was 24.2 µM (active). The AC50 [15] was > 380 µM (inactive).
